According to patent US20240210394A1, “MICROORGANISM CAPTURE FROM ANTIMICROBIAL-CONTAINING SOLUTION” (MOMENTUM BIOSCIENCE LIMITED, priority 2019, published 2024):
Where “and” joins values, the source holds several entries; their conditions need not be identical. Equal values may be shown once.

Tests used:
E. coli [1] = assay: TVC viability of E. coli in whole blood with SPS over time; format: cell-based
Description: 2×5 mL whole blood or BacTec PLUS aerobic blood broth (1:3 ratio) aliquoted for each sample-set (E. coli and NSC sample). Then SPS added as follows:
Then 5 μL of E. coli 1E-2 preculture added to each 5-mL specimen tube to recreate standard 1E-5 dilution sample
• 1.88 μL neat o/n in Nutrient Broth (NB) added to 3 mL NB; and incubated for 2 hours at 37° C., 500 rpm • After 2 hours, E. coli preculture diluted 10-fold in warm NB; and then 5 μL added to each 5 mL specimen tube (prepared as shown in test conditions) • Magnitor Test initiated immediately, and TVCs performed as detailed below.
• 100 μL on COL plates at Time Zero • Sample bijous, containing approximately 2 mL sample, left at room temperature (20.4° C.) on bench (static) • TVCs performed at time points shown in table: samples mixed thoroughly before plating

E. coli [2] = assay: ETGA (microbial polymerase) qPCR after microbial capture (Magnitor test); format: cell-based; parameters: ETGA results CV: unit not given here
Description: The Magnitor test consists of two microbial detection read-outs: • ETGA: detection of microbial polymerase from intact microbial cells • Confirm: detection of microbial DNA according to gram status (Gram Negative, Gram Positive, or Candida) […]
• E. coli o/n liquid culture 1E-3 dilution spiked into blood broth (6.25 μL o/n per mL: 244 μL o/n+39 mL blood broth) and […] out-growth performed in shaking incubator @ 37° C., 500 rpm • Following 2-hour outgrowth, samples produced by adding 1 mL specimen to 2 mL tube containing buffer (and 15 μL BioEstapor beads (Merck, Cat #BE-M 08/0.3) for Mag Beads sample-set): triplicate E. coli (EC) and No Spike Control (NSC) samples per test condition • 100 μL TVCs performed for NSC and E. coli (including dilutions of specimen to ensure countable plates)
• Samples centrifuged for 3 minutes at 9000×g (tube hinges facing outwards for pellet traceability) • Supernatants removed • 50 μL LM added to samples (approx. 10× pipette mixes to resuspend pellets) • Samples placed in shaking incubator at 900 rpm for 5 minutes and then 800 rpm for 55 minutes (26° C.) • Centrifuge samples at 17000×g for 1 minute before qPCR set-up
• Samples placed in shaking incubator at 900 rpm for 30 minutes (37° C.) • Samples placed on DynaMag-2 magnetic rack for 5 minutes and then supernatants removed • 50 μL LM added to samples (approx. 10× pipette mixes to resuspend pellets) • Samples placed in shaking incubator at 900 rpm for 5 minutes and then 800 rpm for 55 minutes (26° C.) • Magnetise samples for 3 minutes before qPCR set-up Manual qPCR set-up (10 μL reactions) for ETGA mastermix only
• E. coli o/n liquid culture set-up as standard in BacTec PLUS aerobic broth, then following day (approx. 16 hours later) 1.88 μL o/n added to 3 mL broth (equivalent to EC 1E-1 dilution added to broth at 6.25 μL/mL) and 2-hour outgrowth performed at 37° C., 500 rpm. • Following 2-hour outgrowth, E. coli preculture serially diluted (DF10) down to EC 1E-6 in either prewarmed blood-broth (BB), broth only (BO) or 1× buffer (B-BUF or Tris+NaCl). • 100 μL TVCs performed for all E. coli dilutions and NSCs
• 1 mL samples added to 2 mL tubes containing 112 μL of binding buffer (either B-BUF or Tris+NaCl: 10× for BB and BO sample-sets; and 1× for Buffer sample-sets)+15 μL beads (prewashed in respective buffer) • 30 mins shaking (1000 rpm) @ 37° C. • 5 mins magnetisation on DynaMag-2 • All s/n removed • 1 mL WB added and tubes mixed for 2 mins @ RT (1000 rpm) • 5 mins magnetisation on Dynmag-2 • All s/n removed • 50 μL LM added to tubes off magnet (5 μL Polymerase Control (PC) added to each PC sample tube) • ETGA reaction performed: 5 mins at 1000 rpm, then 55 mins at 800 rpm @26° C. • Manual qPCR set-up for ETGA and Confirm (10 μL reactions)
• E. coli o/n liquid cultures set-up as standard in BacTec PLUS aerobic broth (containing SPS) and Nutrient Broth (NB containing no SPS), then the following day (approx. 16 hours later) 1.88 μL o/n added to 3 mL broth (equivalent to EC 1E-1 dilution added to broth at 6.25 μL/mL) for each broth type (NB in morning and PLUS broth in afternoon), and 2-hour outgrowth incubations performed at 37° C., 500 rpm. • For each experiment (NB and PLUS), 1E-1 E. coli preculture diluted down to E. coli 1E-6 (DF10) in each 1× buffer (BUF-1 to BUF-6) • 100 μL TVCs performed using a separate EC dilution set performed in relevant broth (NB or PLUS broth) to prevent plate viability inconsistencies resulting from different 1× buffers […]

Sodium polyanethol sulfonate [SPS]
FOLD INCR. 0-2 hr (E. coli [1]; WB SPS 0.01 %): 3.39
TVC colonies (E. coli [1]; WB SPS 0.01 %, EC Time 2 hrs): 498 colonies
TVC colonies (E. coli [1]; WB SPS 0.01 %, EC Time 4 hrs): TNTC
TVC colonies (E. coli [1]; WB SPS 0.01 %, EC Time 6 hrs): TNTC
TVC colonies (E. coli [1]; WB SPS 0.01 %, EC Time 21 hrs): LAWN
TVC colonies (E. coli [1]; WB SPS 0.01 %, EC Time ZERO): 147 colonies
FOLD INCR. 0-2 hr (E. coli [1]; WB SPS 0.02 %): 4.67
TVC colonies (E. coli [1]; WB SPS 0.02 %, EC Time 2 hrs): 448 colonies
TVC colonies (E. coli [1]; WB SPS 0.02 %, EC Time 4 hrs): TNTC
TVC colonies (E. coli [1]; WB SPS 0.02 %, EC Time 6 hrs): TNTC
TVC colonies (E. coli [1]; WB SPS 0.02 %, EC Time 21 hrs): LAWN
TVC colonies (E. coli [1]; WB SPS 0.02 %, EC Time ZERO): 96 colonies
FOLD INCR. 0-2 hr (E. coli [1]; WB SPS 0.04 %): 3.12
TVC colonies (E. coli [1]; WB SPS 0.04 %, EC Time 2 hrs): 1106 colonies
TVC colonies (E. coli [1]; WB SPS 0.04 %, EC Time 4 hrs): TNTC
TVC colonies (E. coli [1]; WB SPS 0.04 %, EC Time 6 hrs): TNTC
TVC colonies (E. coli [1]; WB SPS 0.04 %, EC Time 21 hrs): LAWN
TVC colonies (E. coli [1]; WB SPS 0.04 %, EC Time ZERO): 354 colonies
FOLD INCR. 0-2 hr (E. coli [1]; WB SPS 0.06 %): 5.94
TVC colonies (E. coli [1]; WB SPS 0.06 %, EC Time 2 hrs): 760 colonies
TVC colonies (E. coli [1]; WB SPS 0.06 %, EC Time 4 hrs): TNTC
TVC colonies (E. coli [1]; WB SPS 0.06 %, EC Time 6 hrs): TNTC
TVC colonies (E. coli [1]; WB SPS 0.06 %, EC Time 21 hrs): LAWN
TVC colonies (E. coli [1]; WB SPS 0.06 %, EC Time ZERO): 128 colonies
FOLD INCR. 0-2 hr (E. coli [1]; WB SPS 0.08 %): 1.52
TVC colonies (E. coli [1]; WB SPS 0.08 %, EC Time 2 hrs): 491 colonies
TVC colonies (E. coli [1]; WB SPS 0.08 %, EC Time 4 hrs): TNTC
TVC colonies (E. coli [1]; WB SPS 0.08 %, EC Time 6 hrs): TNTC
TVC colonies (E. coli [1]; WB SPS 0.08 %, EC Time 21 hrs): LAWN
TVC colonies (E. coli [1]; WB SPS 0.08 %, EC Time ZERO): 322 colonies
FOLD INCR. 0-2 hr (E. coli [1]; WB SPS 0.1 %): 2.71
TVC colonies (E. coli [1]; WB SPS 0.1 %, EC Time 2 hrs): 341 colonies
TVC colonies (E. coli [1]; WB SPS 0.1 %, EC Time 4 hrs): TNTC
TVC colonies (E. coli [1]; WB SPS 0.1 %, EC Time 6 hrs): TNTC
TVC colonies (E. coli [1]; WB SPS 0.1 %, EC Time 21 hrs): LAWN
TVC colonies (E. coli [1]; WB SPS 0.1 %, EC Time ZERO): 126 colonies
ETGA results Ave. ΔCt (E. coli [2]; WB SPS 0.01 %): 4.70
ETGA results CV (E. coli [2]; WB SPS 0.01 %): 56.59
ETGA results (E. coli [2]; WB SPS 0.01 %, EC 1-3 replicates, Time ZERO): 27.90 Ct and 29.12 Ct and 28.14 Ct
ETGA results (E. coli [2]; WB SPS 0.01 %, NSC 1-3 replicates, NoCt changed to 50 Ct): 33.39 Ct and 33.06 Ct and 32.81 Ct
ETGA results Ave. ΔCt (E. coli [2]; WB SPS 0.02 %): 7.28
ETGA results CV (E. coli [2]; WB SPS 0.02 %): 6.16
ETGA results (E. coli [2]; WB SPS 0.02 %, EC 1-3 replicates, Time ZERO): 26.41 Ct and 25.88 Ct and 27.24 Ct
ETGA results (E. coli [2]; WB SPS 0.02 %, NSC 1-3 replicates, NoCt changed to 50 Ct): 33.20 Ct and 33.77 Ct and 34.41 Ct
ETGA results Ave. ΔCt (E. coli [2]; WB SPS 0.04 %): 9.65
ETGA results CV (E. coli [2]; WB SPS 0.04 %): 4.40
ETGA results (E. coli [2]; WB SPS 0.04 %, EC 1-3 replicates, Time ZERO): 29.31 Ct and 29.43 Ct and 29.70 Ct
ETGA results (E. coli [2]; WB SPS 0.04 %, NSC 1-3 replicates, NoCt changed to 50 Ct): 38.93 Ct and 39.93 Ct and 38.54 Ct
ETGA results Ave. ΔCt (E. coli [2]; WB SPS 0.06 %): 15.74
ETGA results CV (E. coli [2]; WB SPS 0.06 %): 0.02
ETGA results (E. coli [2]; WB SPS 0.06 %, EC 1-3 replicates, Time ZERO): 28.70 Ct and 28.50 Ct and 27.62 Ct
ETGA results (E. coli [2]; WB SPS 0.06 %, NSC 1-3 replicates, NoCt changed to 50 Ct): 44.62 Ct and 44.11 Ct and 43.30 Ct
ETGA results Ave. ΔCt (E. coli [2]; WB SPS 0.08 %): 18.12
ETGA results CV (E. coli [2]; WB SPS 0.08 %): 0.01
ETGA results (E. coli [2]; WB SPS 0.08 %, EC 1-3 replicates, Time ZERO): 32.31 Ct and 31.94 Ct and 31.40 Ct
ETGA results (E. coli [2]; WB SPS 0.08 %, NSC 1-3 replicates, NoCt changed to 50 Ct): 50.00 Ct
ETGA results Ave. EC (E. coli [2]; WB SPS 0.1 %): 34.07 Ct
ETGA results Ave. NSC (E. coli [2]; WB SPS 0.1 %): 50.00 Ct
ETGA results Ave. ΔCt (E. coli [2]; WB SPS 0.1 %): 15.93
ETGA results CV (E. coli [2]; WB SPS 0.1 %): 0.02
ETGA results (E. coli [2]; WB SPS 0.1 %, EC 1-3 replicates, Time ZERO): 33.76 Ct and 34.37 Ct and 34.08 Ct
ETGA results (E. coli [2]; WB SPS 0.1 %, NSC 1-3 replicates, NoCt changed to 50 Ct): 50.00 Ct
